The target in assay [1] is Carbonic anhydrase 9 (Homo sapiens, UniProt Q16790). The experiment in a line: Inhibition of recombinant human CA9 preincubated for 15 mins by phenol red dye-based stopped-flow CO2 hydration assay.
Assay [2] addresses Carbonic anhydrase 1 (Homo sapiens, UniProt P00915). Put plainly: Inhibition of recombinant human CA1 preincubated for 15 mins by phenol red dye-based stopped-flow CO2 hydration assay.
For assay [3], the target named is Carbonic anhydrase 4 (Homo sapiens, UniProt P22748). Put plainly: Inhibition of recombinant human CA4 preincubated for 15 mins by phenol red dye-based stopped-flow CO2 hydration assay.
Sequence of Carbonic anhydrase 4 (P22748 whole entry): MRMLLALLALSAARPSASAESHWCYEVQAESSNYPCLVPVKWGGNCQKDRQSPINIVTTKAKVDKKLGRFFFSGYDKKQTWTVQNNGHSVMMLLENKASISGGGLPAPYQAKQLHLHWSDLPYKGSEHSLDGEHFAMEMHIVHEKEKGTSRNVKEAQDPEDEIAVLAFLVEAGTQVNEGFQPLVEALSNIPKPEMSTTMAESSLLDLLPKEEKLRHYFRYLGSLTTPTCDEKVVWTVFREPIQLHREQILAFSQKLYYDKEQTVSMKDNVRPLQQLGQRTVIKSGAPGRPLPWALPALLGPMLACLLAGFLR
Assay [4] addresses Carbonic anhydrase 2 (Homo sapiens, UniProt P00918). Put plainly: Inhibition of recombinant human CA2 preincubated for 15 mins by phenol red dye-based stopped-flow CO2 hydration assay.

pKi: −log10 of the molar value.

Ki data for 27 molecules are collected here from ChEMBL document CHEMBL4828705, “Inhibition studies on carbonic anhydrase isoforms I, II, IV and IX with N-arylsubstituted secondary sulfonamides featuring a bicyclic tetrahydroindazole scaffold” (Eur J Med Chem, 2021).

The term pKi denotes the Ki on a negative log10 scale, so that one unit is a factor of ten.

Sequence of Carbonic anhydrase 1 (P00915 whole entry): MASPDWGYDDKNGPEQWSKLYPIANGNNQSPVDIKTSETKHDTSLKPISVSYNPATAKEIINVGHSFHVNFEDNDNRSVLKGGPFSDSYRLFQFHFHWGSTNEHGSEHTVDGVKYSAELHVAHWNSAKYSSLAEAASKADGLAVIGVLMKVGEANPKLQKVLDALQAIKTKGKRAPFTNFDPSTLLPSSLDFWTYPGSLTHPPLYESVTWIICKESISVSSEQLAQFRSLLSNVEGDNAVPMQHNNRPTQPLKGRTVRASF

For `CC1(C)CC(=O)c2cnn(-c3ccc(S(=O)(=O)Nc4cccc([N+](=O)[O-])c4)cc3)c2C1`, the pKi in assay [1] and in assay [2] was less than 4.00 throughout.
For the molecule `Cc1ccc(NS(=O)(=O)c2ccc(-n3ncc4c3CC(C)(C)CC4=O)cc2)cc1`, the pKi in assay [1] and in assay [2] was less than 4.00 in each case.
Consider `CC1(C)CC(=O)c2cnn(-c3ccc(S(=O)(=O)Nc4ccc([N+](=O)[O-])cc4)cc3)c2C1`, for which the pKi in assay [1] and in assay [2] was less than 4.00 throughout.
`Cc1cccc(NS(=O)(=O)c2ccc(-n3ncc4c3CC(c3ccccc3)CC4=O)cc2)c1` (centres undefined): the pKi in assay [1] is 4.21; in assay [3] it was less than 4.00.
As to `O=C1CC(c2ccccc2)Cc2c1cnn2-c1ccc(S(=O)(=O)Nc2ccccc2)cc1` (centres undefined), the pKi in assay [1] was 4.02.
Still for that read-out and setting: next, `COc1ccc(NS(=O)(=O)c2ccc(-n3ncc4c3CC(C)(C)CC4=O)cc2)cc1`: less than 4.00; `O=C1CC(c2ccccc2)Cc2c1cnn2-c1ccc(S(=O)(=O)Nc2ccc(Cl)cc2)cc1` (centres undefined): 4.33.
The same measure, in the same setting: next, `COc1cccc(NS(=O)(=O)c2ccc(-n3ncc4c3CC(C)(C)CC4=O)cc2)c1`: less than 4.00.
`O=C1CCCc2c1cnn2-c1ccc(S(=O)(=O)Nc2cccc(Cl)c2)cc1`: in assay [1], the negative-log Ki (pKi) was 4.43.
The same measure, in the same setting: next, `COc1ccc(NS(=O)(=O)c2ccc(-n3ncc4c3CCCC4=O)cc2)cc1`: 4.25; `Cc1cccc(NS(=O)(=O)c2ccc(-n3ncc4c3CCCC4=O)cc2)c1`: 4.48.
With `O=C1CCCc2c1cnn2-c1ccc(S(=O)(=O)Nc2cccc([N+](=O)[O-])c2)cc1`, the pKi in assay [1] and in assay [4] was less than 4.00 in each case.
With `O=C1CCCc2c1cnn2-c1ccc(S(=O)(=O)Nc2ccc(Cl)cc2)cc1`, in assay [1], the negative logarithm of the Ki (pKi) was less than 4.00.
On the same count and under the same terms, as for `O=C1CCCc2c1cnn2-c1ccc(S(=O)(=O)Nc2ccc([N+](=O)[O-])cc2)cc1`, the figure is 4.08; as for `CC1(C)CC(=O)c2cnn(-c3ccc(S(=O)(=O)Nc4ccccc4)cc3)c2C1`, less than 4.00; as for `Cc1ccc(NS(=O)(=O)c2ccc(-n3ncc4c3CCCC4=O)cc2)cc1`, 4.41.
On the same count and under the same terms, next, `O=C1CCCc2c1cnn2-c1ccc(S(=O)(=O)Nc2ccccc2)cc1`: 4.01; `O=C1CC(c2ccccc2)Cc2c1cnn2-c1ccc(S(=O)(=O)Nc2ccc([N+](=O)[O-])cc2)cc1` (centres undefined): 5.39.
Take `O=C1CC(c2ccccc2)Cc2c1cnn2-c1ccc(S(=O)(=O)Nc2cccc([N+](=O)[O-])c2)cc1` (centres undefined): the pKi in assay [1] is 4.07; in assay [3], less than 4.00.
As for `COc1cccc(NS(=O)(=O)c2ccc(-n3ncc4c3CC(c3ccccc3)CC4=O)cc2)c1` (centres undefined), the negative logarithm of the Ki (pKi) in assay [1] was 4.24.
Still for that read-out and setting: next, `COc1ccc(NS(=O)(=O)c2ccc(-n3ncc4c3CC(c3ccccc3)CC4=O)cc2)cc1` (centres undefined): 4.40.
On the same count and under the same terms, next, `O=C1CC(c2ccccc2)Cc2c1cnn2-c1ccc(S(=O)(=O)Nc2cccc(Cl)c2)cc1` (centres undefined): 4.38; `CC1(C)CC(=O)c2cnn(-c3ccc(S(=O)(=O)Nc4ccc(Cl)cc4)cc3)c2C1`: less than 4.00.
Take `COc1cccc(NS(=O)(=O)c2ccc(-n3ncc4c3CCCC4=O)cc2)c1`: the pKi in assay [1], in assay [3] and in assay [4] was less than 4.00 each time.
In the case of `CC1(C)CC(=O)c2cnn(-c3ccc(S(=O)(=O)Nc4cccc(Cl)c4)cc3)c2C1`, the negative-log Ki (pKi) in assay [1], in assay [2] and in assay [4] was less than 4.00 throughout.
As to `Cc1ccc(NS(=O)(=O)c2ccc(-n3ncc4c3CC(c3ccccc3)CC4=O)cc2)cc1` (centres undefined), in assay [1], the pKi is 4.33.
Consider `Cc1cccc(NS(=O)(=O)c2ccc(-n3ncc4c3CC(C)(C)CC4=O)cc2)c1`, for which the negative logarithm of the Ki (pKi) in assay [1], in assay [2] and in assay [4] was less than 4.00 each time.
